According to ChEMBL document CHEMBL1201862, “PubChem BioAssay data set” (2004):
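Method: 48-hour compound exposure of cells in 96-well plates, five concentrations, linear interpolation of endpoints. GI50 is the concentration that inhibits growth by half.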 Calls of active or inactive are those of the source. Cut-off read from the data, not from the text of the source: active = GI50 up to about 1.1 µM and inactive = higher. Bridge positions count the residues as written; N and C are the ends. Square brackets hold non-standard residues; d marks the D form. Peptide text beside a SMILES is read from it. * marks the point of attachment. Cbz = O=C(OCc1ccccc1)*; Dab = NCC[CH](N)C(=O)O; Bn = c1ccc(C*)cc1

Key:
Assay in all cases: NCI-60 cell line screen, 48 h
K562 = tested on: K562
TK-10 = tested on: TK-10
LOX IMVI = tested on: LOX IMVI
SK-MEL-5 = tested on: SK-MEL-5
SR = tested on: SR
Malme-3M = tested on: Malme-3M
A549 = tested on: A549
UACC-257 = tested on: UACC-257
SF-268 = tested on: SF-268
MCF7 = tested on: MCF7
HL-60 = tested on: HL-60
CCRF-CEM = tested on: CCRF-CEM
OVCAR-8 = tested on: OVCAR-8
SK-MEL-28 = tested on: SK-MEL-28
786-0 = tested on: 786-0
SF-295 = tested on: SF-295
SW-620 = tested on: SW-620
MOLT-4 = tested on: MOLT-4
OVCAR-4 = tested on: OVCAR-4
NCI-H460 = tested on: NCI-H460

Row | SMILES | GI50 (K562) | GI50 (TK-10) | GI50 (LOX IMVI) | GI50 (SK-MEL-5) | GI50 (SR) | GI50 (Malme-3M) | GI50 (A549) | GI50 (UACC-257) | GI50 (SF-268) | GI50 (MCF7) | GI50 (HL-60) | GI50 (CCRF-CEM) | GI50 (OVCAR-8) | GI50 (SK-MEL-28) | GI50 (786-0) | GI50 (SF-295) | GI50 (SW-620) | GI50 (MOLT-4) | GI50 (OVCAR-4) | GI50 (NCI-H460)
1 | CC(C)=CCC[C@@H](C)C1=C(N)C(=O)C(C)=C(O)C1=O | 35.7 µM (inactive) | 53.1 µM (inactive) | 36.6 µM (inactive) | 24.8 µM (inactive) | 26.3 µM (inactive) | 56.9 µM (inactive) | 32.6 µM (inactive) | > 75 µM (inactive) | 27.4 µM (inactive) | 61.5 µM (inactive) | 13 µM (inactive) | 18.7 µM (inactive) | 22.4 µM (inactive) | > 75 µM (inactive) | 43.7 µM (inactive) | 32.1 µM (inactive) | 41.3 µM (inactive) | 19.5 µM (inactive) | 35.7 µM (inactive) | 33.7 µM (inactive)
2 | OCCc1ccsc1-c1sc(-c2cc(CCO)c(-c3sc(-c4cc(CCO)c(-c5sccc5CCO)s4)cc3CCO)s2)cc1CCO | 1.14 µM (inactive) | 1.55 µM (inactive) | 0.617 µM (active) | 1.13 µM (inactive) | 0.684 µM (active) | 1.14 µM (inactive) | 0.656 µM (active) | 1.13 µM (inactive) | 0.881 µM (active) | 0.624 µM (active) | 1.53 µM (inactive) | 0.647 µM (active) | 1.55 µM (inactive) | 1.55 µM (inactive) | 0.776 µM (active) | 1.29 µM (inactive) | 1.31 µM (inactive) | 0.52 µM (active) | 1.16 µM (inactive) | 0.841 µM (active)
3 | Cn1c(=O)cc(NNc2ccc(Cl)c(Cl)c2)[nH]c1=O | 2.04 µM (inactive) | 16.7 µM (inactive) | 12.2 µM (inactive) | 5.31 µM (inactive) | > 100 µM (inactive) | > 10 µM (inactive) | 16.2 µM (inactive) | 14.9 µM (inactive) | 27.9 µM (inactive) | 6.41 µM (inactive) | 8 µM (inactive) | 13.1 µM (inactive) | 13.6 µM (inactive) | 11.5 µM (inactive) | 12.4 µM (inactive) | 15.3 µM (inactive) | 6.1 µM (inactive) | 14.5 µM (inactive) | 10.7 µM (inactive) | 4.86 µM (inactive)
4 | Cc1ccc(S(=O)(=O)N2CCN(S(=O)(=O)c3ccc(C)cc3)CCN(S(=O)(=O)c3ccc(C)cc3)Cc3cc(C#N)c(C#N)cc3CN(S(=O)(=O)c3ccc(C)cc3)CC2)cc1 | > 100 µM (inactive) | 86.7 µM (inactive) | > 100 µM (inactive) | > 100 µM (inactive) | > 100 µM (inactive) | 52.4 µM (inactive) | > 100 µM (inactive) | > 100 µM (inactive) | > 100 µM (inactive) | > 100 µM (inactive) | > 100 µM (inactive) | > 100 µM (inactive) | > 100 µM (inactive) | > 100 µM (inactive) | > 100 µM (inactive) | > 100 µM (inactive) | > 100 µM (inactive) | > 100 µM (inactive) | > 100 µM (inactive) | > 100 µM (inactive)
5 | CC(C)C1OCC(CO)CO1 (configuration not stated) | – | > 100 µM (inactive) | > 100 µM (inactive) | > 100 µM (inactive) | > 100 µM (inactive) | > 100 µM (inactive) | > 100 µM (inactive) | > 100 µM (inactive) | > 100 µM (inactive) | > 100 µM (inactive) | > 100 µM (inactive) | > 100 µM (inactive) | > 100 µM (inactive) | > 100 µM (inactive) | > 100 µM (inactive) | > 100 µM (inactive) | > 100 µM (inactive) | > 100 µM (inactive) | > 100 µM (inactive) | > 100 µM (inactive)
6 | CC(C)CC1NC(=O)C(Cc2ccccc2)NC(=O)C(Cc2ccccc2)NC(=O)C(NC(=O)C(Cc2ccc(OCc3ccccc3)cc2)NC(=O)OCc2ccccc2)CCNC1=O (configuration not stated) (Cbz-Y(Bn)[Dab]FFL; lactam 2-C; configuration not given here) | > 100 µM (inactive) | 32.6 µM (inactive) | > 100 µM (inactive) | 76.4 µM (inactive) | 63.1 µM (inactive) | 74.3 µM (inactive) | – | 32.1 µM (inactive) | > 100 µM (inactive) | 38.8 µM (inactive) | > 100 µM (inactive) | 33.7 µM (inactive) | > 100 µM (inactive) | > 100 µM (inactive) | 41.1 µM (inactive) | > 100 µM (inactive) | > 100 µM (inactive) | 14.6 µM (inactive) | 47.2 µM (inactive) | 35.1 µM (inactive)
7 | Cc1c(-c2ccccc2)c(C#N)c2nnn(-c3ccccc3)c(=O)n12 | 40.6 µM (inactive) | > 100 µM (inactive) | 48.4 µM (inactive) | 30.9 µM (inactive) | 33.8 µM (inactive) | 97.9 µM (inactive) | 97.9 µM (inactive) | > 100 µM (inactive) | > 100 µM (inactive) | 80.9 µM (inactive) | 84.1 µM (inactive) | 34.8 µM (inactive) | > 100 µM (inactive) | > 100 µM (inactive) | 76.4 µM (inactive) | 43.7 µM (inactive) | > 100 µM (inactive) | – | > 100 µM (inactive) | 64.6 µM (inactive)
